One data set deals with hCB1 (Homo sapiens, UniProt P21554). Put plainly: Lance Ultra cAMP accumulation assay (inhibition of forskolin-stimulated cAMP), CHO cells. It counts as cell-based. Further details: expressed in transfected cells. The settings on record: for Emax: CHO, read-out: hCB1 Lance Ultra cAMP Emax [95% CI]. As for the experimental part:
The inhibition of forskolin-stimulated cAMP accumulation assays was carried out using PerkinElmer’s Lance Ultra cAMP kit following the manufacturer’s protocol. In brief, CHO cells stably expressing human CB1R were harvested by incubation with Versene (ThermoFisher Scientific, Waltham, MA) for 10 min, washed once with Hank’s Balanced Salt Solution, and resuspended in stimulation buffer at ~200 cells/μL density. The ligands at eight different concentrations (0.001–10,000 nM) in stimulation buffer (5 μL) containing forskolin (2 μM final concentration) were added to a 384-well plate followed by the cell suspension (5 μL; ~1000 cells/well). The plate was incubated for 30 min at room temperature. Eu-cAMP tracer (5 μL) and Ulight-anti-cAMP (5 μL) working solutions were then added to each well, and the plate was incubated at room temperature for an additional 60 min. Results were measured on a Perkin-Elmer EnVision plate reader. The EC50 values were determined by nonlinear regression analysis using Prism software (GraphPad Software, Inc., San Diego, CA) and are expressed as the mean of three experiments, each performed in triplicate.
For orientation: Changes in cAMP serve as a functional read-out for many G protein-coupled receptors.

Another data set has as its target hCB2 (Homo sapiens, UniProt P34972). Put plainly: Tango β-arrestin-2 recruitment assay, HTLA cells. It counts as cell-based. The settings on record: for Emax: HTLA, read-out: hCB2 Tango ß-arrestin recruitment Emax [95% CI]. Also noted: expressed in transfected cells; host or cells: HTLA (transient). The protocol: The Tango β-arrestin-2 recruitment assays were performed as described. In brief, HTLA cells were transiently transfected with human CB1R or CB2R Tango DNA construct overnight in DMEM supplemented with 10 % FBS, 100 μg ml−1 streptomycin and 100 U ml−1 penicillin. The transfected cells were then plated into poly-L-lysine-coated 384-well white clear-bottom cell culture plates in DMEM containing 1% dialysed FBS at a density of 10,000–15,000 cells per well. After incubation for 6 h, the plates were added with drug solutions prepared in DMEM containing 1% dialysed FBS for overnight incubation. On the day of assay, medium and drug solutions were removed and 20 μl per well of BrightGlo reagent (Promega) was added. The plates were further incubated for 20 min at room temperature and counted using the Wallac TriLux Microbeta counter (PerkinElmer). The results were analysed using GraphPad Prism 9.1. Each experiment was performed in triplicate and functional […] values were determined from the mean of three independent experiments.
For orientation: Recruitment of arrestin is a read-out of receptor activation apart from second messengers.

Another data set deals with T1, CB1 (Rattus norvegicus, UniProt P20272).
T1 construct: membrane preparations from rat brain (source of CB1); tissue Bioivt RAT00BRAINMZN; host or cells: rat brain
The data set can be described thus: Radioligand competition binding with [3H]-CP-55,940, rat brain membranes. The settings on record: for LE: ligand efficiency; for LLE: lipophilic ligand efficiency; for Emax: maximal radioligand displacement, read-out: rCB1 binding Emax [SEM]; for Ki: [3H]-CP-55,940 competition, rat brain membranes. The protocol: The results were analyzed using nonlinear regression to determine the IC50 and Ki values for each ligand (Prism by GraphPad Software, Inc., San Diego, CA). The Ki values are expressed as the mean of two to three experiments each performed in triplicate.

Data set [1] concerns C56BL/6 mice. Put plainly: Acute thermal pain tests (tail flick, hot plate, Hargreaves). It counts as in vivo, mouse. The settings on record: for tail flick latency of co-injection with morphine (3.0 mg/kg, i.p.) versus morphine alone: 0.05 and 0.1 mg/kg; for analgesic effect under CB1R knockout or AM251 (5.0 mg/kg) pre-treatment: tail flick assay; for lowest dose with significant analgesia (latencies above baseline): tail flick, hot plate and Hargreaves tests, i.p. (In general: Hot-plate and tail-flick tests time the reaction to a heat stimulus.)

Data set [2] concerns C56BL/6 mice. The data set can be described thus: Open field test of hypolocomotion. The settings on record: for motor effect versus vehicle at analgesic doses: open field and rotarod tests. It counts as in vivo, mouse. As for the experimental part:
Thirty minutes after i.p. injection, mice were placed in the center of a round open-field (2 feet diameter) and their exploratory behavior recorded over the next 15 minutes. Distance traveled was used to represent open field behavior.

The test system of data set [3] is C56BL/6 mice. The data set can be described thus: Catalepsy test (vertical wire mesh). The class given is in vivo, mouse. The settings on record: for cataleptic behavior: analgesic doses (0.2 or 0.5 mg/kg), 30 minutes or 1-hour post-injection; for concentration window between anti-allodynia or analgesia versus catalepsy and sedation, maximum: depending on the nociceptive behavior. The protocol:
Thirty and 60 minutes after an i.p. injection of the compounds, mice were placed on a vertical wire mesh and the latency to move all four paws was recorded.

For data set [4], the system named is C56BL/6 mice. The data set can be described thus: Body temperature by telemetric probe. It counts as in vivo, mouse. The settings on record: body temperature over 150 minutes. As for the experimental part: Body temperature (BT) was measured using a telemetric probe device (HD-X10; Data Science International). Briefly, under anesthesia, the probe device was placed in the mouse abdomen and a subcutaneous tunnel was created from the neck to the abdominal skin, through which a catheter (connected to the probe) was pulled and then inserted into the left carotid artery. Three weeks later, the implanted mice were singly housed in a cage that was placed on top of the DSI receiver (for probe signal detection). […] Data were acquired using the Ponemah Telemetry acquisition software (DSI) and percent changes were presented relative to each mouse’s baseline.

Data set [5] deals with C56BL/6 mice. Put plainly: Acetone test of cold allodynia after SNI. The class given is in vivo, mouse. The settings on record: for effect on SNI-induced cold allodynia (number of paw withdrawals): acetone test. As for the experimental part:
Under isoflurane anesthesia, two of the three branches of the sciatic nerve were ligated and transected distally, leaving the sural nerve intact. Behavior was tested 7 to 14 days after injury.
Mice were placed on a wire mesh and thirty min after an i.p. injection of the compounds we applied a drop (50 μL) of acetone on the ventral aspect of the hindpaw, 5 times every 30 sec. We recorded the number of nocifensive behaviors (paw lifts/licks/shakes/bites) over the 5 applications.

Experimental findings from article doi:10.1101/2023.02.27.530254, “Large library docking for cannabinoid-1 receptor agonists with reduced side effects” (bioRxiv, 2024) are described below.

Several values for one entry are separate records, joined by “and”; a condition that tells them apart may be missing. Equal entries are not always repeated. Bounds are passed on as bounds.

For orientation: EC50 means the concentration at which the effect is half-maximal. In general, Emax refers to the maximal effect, on the per cent scale that the assay sets. In general, Ki refers to a measure of affinity in units of concentration, obtained from inhibition or displacement. A higher Ki goes with lower affinity.

hCB1, sequence (P21554 whole entry): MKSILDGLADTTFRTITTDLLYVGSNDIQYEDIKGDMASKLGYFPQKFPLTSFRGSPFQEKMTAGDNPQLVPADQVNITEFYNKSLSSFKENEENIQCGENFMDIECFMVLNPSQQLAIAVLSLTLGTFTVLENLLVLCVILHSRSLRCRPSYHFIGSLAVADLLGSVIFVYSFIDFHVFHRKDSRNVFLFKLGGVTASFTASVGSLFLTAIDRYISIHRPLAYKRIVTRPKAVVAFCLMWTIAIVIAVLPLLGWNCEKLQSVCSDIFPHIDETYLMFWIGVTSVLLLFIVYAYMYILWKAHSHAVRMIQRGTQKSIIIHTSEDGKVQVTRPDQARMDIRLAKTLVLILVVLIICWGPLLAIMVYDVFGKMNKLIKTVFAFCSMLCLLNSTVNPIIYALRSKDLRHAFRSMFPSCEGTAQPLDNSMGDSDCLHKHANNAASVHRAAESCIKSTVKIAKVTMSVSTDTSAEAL
T1 sequence (P20272 whole entry): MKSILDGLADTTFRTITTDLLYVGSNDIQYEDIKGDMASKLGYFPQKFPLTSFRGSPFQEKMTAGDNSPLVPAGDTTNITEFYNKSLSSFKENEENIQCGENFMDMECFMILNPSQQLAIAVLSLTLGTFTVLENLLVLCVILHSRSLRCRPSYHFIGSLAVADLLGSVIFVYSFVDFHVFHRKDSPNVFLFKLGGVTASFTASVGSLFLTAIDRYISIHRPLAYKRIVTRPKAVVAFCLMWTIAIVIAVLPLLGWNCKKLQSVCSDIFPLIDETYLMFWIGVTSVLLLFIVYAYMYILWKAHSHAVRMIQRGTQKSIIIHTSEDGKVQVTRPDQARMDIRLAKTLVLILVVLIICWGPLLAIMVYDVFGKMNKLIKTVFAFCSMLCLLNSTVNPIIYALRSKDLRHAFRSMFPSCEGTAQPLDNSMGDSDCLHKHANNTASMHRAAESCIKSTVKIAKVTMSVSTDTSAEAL
hCB2, sequence (P34972 whole entry): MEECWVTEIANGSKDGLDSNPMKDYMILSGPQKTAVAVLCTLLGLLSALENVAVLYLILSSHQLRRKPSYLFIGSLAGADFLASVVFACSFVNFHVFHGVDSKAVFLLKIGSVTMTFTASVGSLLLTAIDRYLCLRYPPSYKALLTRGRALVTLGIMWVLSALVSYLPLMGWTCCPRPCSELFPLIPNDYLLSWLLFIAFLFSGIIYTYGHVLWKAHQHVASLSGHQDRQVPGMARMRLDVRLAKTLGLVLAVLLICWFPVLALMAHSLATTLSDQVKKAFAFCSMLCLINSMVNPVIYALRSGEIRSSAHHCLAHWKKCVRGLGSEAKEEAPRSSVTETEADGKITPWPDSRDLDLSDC

`COC(=O)C(NC(=O)c1cc(C)n(-c2cccc(C(F)(F)F)c2)n1)c1cccs1` (centres unmarked) [‘60154]: on hCB1, a half-maximal effect (EC50) was put at 316 nM and the Emax came out at 67%. Further, at hCB2, the half-maximal effective concentration (EC50) is 3340 nM and the Emax was found to be 21%. Besides, on CB1, the LE turned out to be 0.36, the LLE is 3.5 and the Emax amounted to 110%. Moreover, the Ki on CB1 (rCB1 binding Ki [95% CI]) turned out to be 44.3 nM. This compound also had an inhibition constant (Ki) on CB1 (rCB1 binding pKi [95% CI]) of 39.8 nM.
For `COC(=O)C(C)(NC(=O)c1cc(C)n(-c2cccc(C(F)(F)F)c2)n1)c1cccs1` (centres unmarked) [‘4042], in the data set with C56BL/6 mice [1], the “tail flick latency of co-injection with morphine (3.0 mg/kg, i.p.) versus morphine alone” value is listed as “significantly longer tail flick latencies”; the “analgesic effect under CB1R knockout or AM251 (5.0 mg/kg) pre-treatment” value was “completely blocked”; the “lowest dose with significant analgesia (latencies above baseline)” value is on record as 0.1 mg/kg. The “decrease of analgesic effects by CB2R knockout or SR-144528 (1.0 mg/kg)” value with C56BL/6 mice [1] (tail flick or Hargreaves assays) is “neither”. In addition, the “motor effect versus vehicle at analgesic doses” value with C56BL/6 mice [2] is given as “no significant differences”. On hCB1, the EC50 amounted to 3.3 nM and the maximal response (Emax) came to 78%. In addition, at hCB2, it took 33.9 nM to reach a half-maximal effect (EC50) and the maximal response (Emax) came out at 28%. In the data set with C56BL/6 mice [3], the cataleptic behavior entry is recorded as “did not induce cataleptic behavior”; the “concentration window between anti-allodynia or analgesia versus catalepsy and sedation, maximum” value is on record as “up to a twenty-fold”. Moreover, in the data set on C56BL/6 mice [3] (mouse, in vivo), the “concentration window between anti-allodynia or analgesia versus catalepsy and sedation, typical” value was “five- to ten-fold”; the “dose at which catalepsy was recorded” value is reported as over 1.0 mg/kg. Besides, the “window between analgesia and both sedation and catalepsy” value with C56BL/6 mice [3] (typical) was 5–10 fold. Also, in the data set on C56BL/6 mice [4], the “hypothermia compared to baseline and vehicle” value is recorded as “induced hypothermia”. The “effect on SNI-induced cold allodynia (number of paw withdrawals)” value (“effect on SNI-induced cold allodynia” for short) with C56BL/6 mice [5] is recorded as “strongly reduced”. Further, at CB1, the LE stood at 0.41, the LLE worked out at 4.6 and the Emax worked out at 99%. Also, the Ki at CB1 (rCB1 binding Ki [95% CI]) is 1.9 nM and 1.86 nM.
Regarding `COC(=O)[C@@](C)(NC(=O)c1cc(C)n(-c2cccc(C(F)(F)F)c2)n1)c1cccs1` [‘1350], in the data set with C56BL/6 mice [1], the “tail flick latency of co-injection with morphine (3.0 mg/kg, i.p.) versus morphine alone” value is reported as “significantly longer tail flick latencies”; the “analgesic effect under CB1R knockout or AM251 (5.0 mg/kg) pre-treatment” value is listed as “completely blocked”; the “lowest dose with significant analgesia (latencies above baseline)” value was 0.1 mg/kg. The “dose showing locomotor deficits” value with C56BL/6 mice [2] (open field test) came out at 0.2 mg/kg. Also, at hCB1, a half-maximal response (EC50) required 1.6 nM, the “hCB1 Lance Ultra cAMP Emax [95% CI]” value was found to be 78% and the Emax is 77%. Moreover, in the data set with C56BL/6 mice [3], the cataleptic behavior entry is “did not induce cataleptic behavior”; the “concentration window between anti-allodynia or analgesia versus catalepsy and sedation, maximum” value is “up to a twenty-fold”. In the data set with C56BL/6 mice [3] (mouse, in vivo), the “concentration window between anti-allodynia or analgesia versus catalepsy and sedation, typical” value is listed as “five- to ten-fold”; the “dose at which catalepsy was recorded” value was > 1.0 mg/kg and 1 mg/kg. Further, in the data set on C56BL/6 mice [3] (tail-flick and hot-plate, 0.1 mg/kg vs 1 mg/kg highest tested dose), the “window between anti-allodynia and catalepsy” value is reported as “at least a ten-fold”. Moreover, the “hypothermia compared to baseline and vehicle” value in the data set on C56BL/6 mice [4] is on record as “induced hypothermia”. Moreover, in the data set with C56BL/6 mice [5], the “effect on SNI-induced cold allodynia” value is listed as “strongly reduced”. The “dose with significant anti-allodynia” value in the data set on C56BL/6 mice [5] (acetone test for cold pain) is reported as 0.05 mg/kg. The Emax on CB1 worked out at 106%. Moreover, the Ki at CB1 (rCB1 binding Ki [95% CI]) was 0.95 nM. For the same compound, at CB1 (rCB1 binding pKi [95% CI]), affinity was put at a Ki of 1 nM.
`CCCCCCC(C)(C)c1ccc([C@@H]2C[C@H](O)CC[C@H]2CCCO)c(O)c1` [CP-55,940, reference compound]: the entries for the “dose with increased latencies” value in the data set with C56BL/6 mice [1] (Hargreaves test) and with C56BL/6 mice [1] (tail flick test) were 0.2 mg/kg and 0.5 mg/kg, respectively. Besides, in the data set on C56BL/6 mice [2], the “motor effect versus vehicle at analgesic doses” value is “caused motor impairment in both the rotarod and open field tests”. Moreover, the Emax on hCB1 amounted to 85%; on hCB2 it was 100%. The “dose at which catalepsy was recorded” value with C56BL/6 mice [3] (C56BL/6, mouse, in vivo, intraperitoneal) is 0.2 mg/kg. Besides, the “window between analgesia and catalepsy” value with C56BL/6 mice [3] (mouse, in vivo) was “no window”. Moreover, the “hypothermia compared to baseline and vehicle” value in the data set on C56BL/6 mice [4] is listed as “induced hypothermia”. Moreover, the “effect on SNI-induced cold allodynia” value in the data set with C56BL/6 mice [5] is given as “strongly reduced”.
